Reference: patent US7691969B2, “Isolated GRP94 ligand binding domain polypeptide and nucleic acid encoding same, crystalline form of same, and screening methods employing same” (Duke University, priority 2001, dated 2010)
Each block holds one molecule with its values, some of them ahead of it.

Key:
GRP94 [1] = biological target: T1, GRP94 (Sus scrofa, UniProt Q29092); experiment: Fluorophore binding to native and heat shocked GRP94 (fluorescence emission); design: species or system porcine; settings: for fluorophore binding to native versus heat shocked GRP94 (fluorescence emission): 0.5 μM GRP94, 5 μM probe, 37° C.
T1 construct: GRP94 was purified from porcine pancreas rough microsomes; from tissue; host or cells: porcine pancreas rough microsomes (lumenal contents)
T1 sequence (Q29092 22-804): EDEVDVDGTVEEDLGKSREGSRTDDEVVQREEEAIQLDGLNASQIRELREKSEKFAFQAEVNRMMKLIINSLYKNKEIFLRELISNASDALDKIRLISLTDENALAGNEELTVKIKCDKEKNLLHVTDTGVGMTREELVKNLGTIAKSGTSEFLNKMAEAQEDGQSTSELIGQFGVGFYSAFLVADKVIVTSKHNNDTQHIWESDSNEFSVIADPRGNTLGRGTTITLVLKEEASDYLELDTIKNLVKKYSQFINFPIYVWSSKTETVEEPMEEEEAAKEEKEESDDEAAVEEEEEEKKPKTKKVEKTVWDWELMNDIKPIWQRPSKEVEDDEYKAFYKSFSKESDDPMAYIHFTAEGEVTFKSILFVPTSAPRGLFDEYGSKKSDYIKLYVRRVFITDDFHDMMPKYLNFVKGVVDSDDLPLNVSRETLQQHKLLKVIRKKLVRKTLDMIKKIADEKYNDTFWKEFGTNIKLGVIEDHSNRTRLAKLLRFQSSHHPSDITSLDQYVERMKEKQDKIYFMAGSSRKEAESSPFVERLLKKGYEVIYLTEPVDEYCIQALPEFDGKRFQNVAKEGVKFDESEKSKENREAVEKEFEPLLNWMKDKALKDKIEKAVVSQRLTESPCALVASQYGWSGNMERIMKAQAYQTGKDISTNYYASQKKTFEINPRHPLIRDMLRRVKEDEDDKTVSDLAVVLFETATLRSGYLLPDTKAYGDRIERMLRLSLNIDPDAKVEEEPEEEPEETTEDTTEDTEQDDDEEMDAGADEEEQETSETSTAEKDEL
Text: Fluorophore Binding Reactions.
Fluorescence Measurements. […] All spectra were background corrected.
To characterize the structural basis for the heat shock dependent activation of GRP94 activity, the interaction of polarity-sensitive fluorophores with native and heat shocked GRP94 was examined. The three probes tested, Prodan (6-propionyl-2-(dimethylamino)naphthalene), 8-ANS (1,8-anilinonaphthalenesulfonate) and bis-ANS (bis(1,8-anilino-naphthalenesulfonate) are structurally related probes that bind to hydrophobic sites on proteins and undergo substantial fluorescence spectrum changes upon introduction into nonpolar environments, as discussed by Rosen & Weber (1969) Biochemistry 8:3915-3920; Weber & Farris (1979) Biochemistry 18:3075-3078; Takashi et al. (1977) Proc Natl Acad Sci USA 74:2334-2338; Shi et al. (1994) Biochemistry 33:7536-7546. The following experimental protocol was utilized. GRP94 was warmed to 37° C. and either maintained at 37° C. or heat shocked for 15 minutes at 50° C., followed by incubation at 37° C. Subsequently, probe stocks were added to the GRP94 stocks and emission spectra recorded after 30 min at 37° C.
Under the experimental conditions used in this series of experiments, bis-ANS binding to GRP94 was near maximal at a 20-fold molar excess of GRP94 monomer over bis-ANS, with half maximal binding observed at 110 nM GRP94 (FIG. 2B).

GRP94 [2] = biological target: T1, GRP94; experiment: GRP94 autophosphorylation assay; type: biochemical, porcine; settings: 180 μM NECA or radicicol in 3.6% DMSO, 5 μg/ml heparin, 5 mM GTP
Protocol: (§1) Phosphorylation Assays. To assay for GRP94 autophosphorylation, 1 μM GRP94 was incubated with γ-[^32P]ATP (6000 cpm/pmol) (Amersham Pharmacia Biotech of Piscataway, N.J.), diluted with cold ATP to yield a final concentration of 0.15 mM ATP in a buffer containing 10 mM Mg(OAc)2 and 50 mM K-Hepes, pH 7.4. For the casein kinase assay, 1 unit of casein kinase II was incubated as described above, with the addition of 4 μM casein. […] The 25 μl reaction mixtures were incubated at 37° C. for 1 hour and quenched by addition of 10% trichloroacetic acid. Samples were analyzed by 10% SDS-PAGE gels and the phosphorylated species were quantitated using a Fuji MACBAS1000™ phosphorimaging system (Fuji Medical Systems of Stamford, Conn.).

casein kinase II = casein kinase II (Homo sapiens, UniProt P68400); experiment: Casein kinase assay; type: biochemical; settings: 180 μM NECA or radicicol in 3.6% DMSO, 5 μg/ml heparin, 5 mM GTP; 4 μM casein
casein kinase II, sequence (P68400 whole entry): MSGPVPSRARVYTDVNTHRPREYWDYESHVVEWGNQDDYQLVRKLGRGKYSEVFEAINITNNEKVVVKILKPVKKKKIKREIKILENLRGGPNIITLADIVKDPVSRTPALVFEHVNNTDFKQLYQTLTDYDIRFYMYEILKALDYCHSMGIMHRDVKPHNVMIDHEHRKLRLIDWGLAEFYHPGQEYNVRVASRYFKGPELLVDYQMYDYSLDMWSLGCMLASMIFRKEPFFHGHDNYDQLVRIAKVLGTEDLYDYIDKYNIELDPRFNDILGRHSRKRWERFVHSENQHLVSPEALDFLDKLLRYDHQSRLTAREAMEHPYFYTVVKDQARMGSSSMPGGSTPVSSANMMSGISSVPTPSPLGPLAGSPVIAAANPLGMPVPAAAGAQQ
casein kinase II, sequence (P67870 whole entry partner): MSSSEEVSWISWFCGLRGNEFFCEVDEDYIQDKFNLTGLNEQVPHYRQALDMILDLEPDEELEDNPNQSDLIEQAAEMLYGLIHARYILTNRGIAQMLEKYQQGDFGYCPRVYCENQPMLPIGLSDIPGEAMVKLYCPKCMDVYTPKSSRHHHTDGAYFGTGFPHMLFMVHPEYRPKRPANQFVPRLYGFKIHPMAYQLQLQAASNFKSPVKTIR
Protocol: as §1

GRP94 [3] = biological target: T1, GRP94; experiment: [3H]-NECA competitive displacement assay; type: binding, porcine; settings: for nucleoside base specificity: binding to GRP94 by [3H]-NECA displacement: competitors at 50 μM; for effect of excess Mg2+ on binding to GRP94: 10 mM Mg(OAc)2 versus nominal magnesium
Protocol: Where indicated, binding reactions were performed in either buffer C (10 mM Tris, pH 7.5, 50 mM KCl, 5 mM MgCl2, 2 mM DTT, 0.01% NP-40, 20 mM Na2MoO4) or 50 mM Tris, pH 7.5, 10 mM Mg(OAc)2. […] Vacuum filtration was performed with an Amersham Pharmacia Biotech (Piscataway, N.J.) vacuum filtration manifold.
All binding reactions were performed in triplicate and corrected by subtraction of background values, determined in binding reactions lacking GRP94.

HSP90 = HSP90 (Saccharomyces cerevisiae, UniProt P02829); settings: cited from earlier work
HSP90, sequence (P02829 whole entry): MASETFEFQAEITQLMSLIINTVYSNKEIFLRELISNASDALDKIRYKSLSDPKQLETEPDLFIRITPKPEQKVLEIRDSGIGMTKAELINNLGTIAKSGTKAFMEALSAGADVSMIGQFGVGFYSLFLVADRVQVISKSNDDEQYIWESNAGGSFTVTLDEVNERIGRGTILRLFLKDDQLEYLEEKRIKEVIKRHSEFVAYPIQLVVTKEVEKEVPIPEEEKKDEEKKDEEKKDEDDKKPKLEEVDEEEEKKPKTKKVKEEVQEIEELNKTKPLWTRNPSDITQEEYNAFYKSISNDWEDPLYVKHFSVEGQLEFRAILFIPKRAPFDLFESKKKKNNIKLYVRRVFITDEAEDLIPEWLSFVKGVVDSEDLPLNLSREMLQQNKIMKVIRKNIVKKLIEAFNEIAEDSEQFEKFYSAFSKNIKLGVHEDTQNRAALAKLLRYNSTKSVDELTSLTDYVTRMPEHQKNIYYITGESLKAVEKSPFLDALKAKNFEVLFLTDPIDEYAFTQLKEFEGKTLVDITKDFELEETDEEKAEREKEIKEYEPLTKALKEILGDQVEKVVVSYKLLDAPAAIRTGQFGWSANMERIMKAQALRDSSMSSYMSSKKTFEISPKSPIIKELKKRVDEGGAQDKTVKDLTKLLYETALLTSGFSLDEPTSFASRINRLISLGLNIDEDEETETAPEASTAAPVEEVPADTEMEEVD

GRP94 [4] = biological target: T1, GRP94; experiment: Tryptophan fluorescence (tertiary conformational state); type: biochemical, porcine; settings: 50 μM NECA, 50 μM geldanamycin, 2.5 mM ATP or 2.5 mM ADP; 1 h 37° C.
Protocol: Tryptophan Fluorescence. Tryptophan fluorescence measurements were conducted in a FLUOROMAX™ spectrofluorometer (Spex Industries, Inc. of Edison, N.J.) with the slit widths set to 1 nm for both excitation and emission. […] All spectra were corrected by subtraction of buffer or buffer plus ligand samples. GRP94 (50 μg/ml) was incubated in buffer A supplemented with 10 mM Mg(OAc)2 and the following concentrations of ligands for 1 hour at 37° C. […] Samples were then cooled to room temperature, transferred to a quartz cuvette, and the spectra collected.

Molecule: CCC(=O)c1ccc2cc(N(C)C)ccc2c1 [Prodan, 6-propionyl-2-(dimethylamino)naphthalene]
- fluorophore binding to native versus heat shocked GRP94 (fluorescence emission) (GRP94 [1]): does not interact with the hydrophobic binding pocket(s) displayed by heat shocked GRP94

Molecule: Heparin
- inhibition of GRP94 autophosphorylation (GRP94-derived kinase) activity (GRP94 [2]): markedly attenuated GRP94-derived and casein kinase II activity
- inhibition of casein kinase II activity (casein kinase II): markedly attenuated GRP94-derived and casein kinase II activity

- nucleoside base specificity: binding to GRP94 by [3H]-NECA displacement (GRP94 [3]): little to no binding
Molecule: Nc1ccn([C@@H]2O[C@H](COP(=O)(O)OP(=O)(O)OP(=O)(O)O)[C@@H](O)[C@H]2O)c(=O)n1 [CTP]

Molecule: C[C@@H]1C[C@H]2O[C@@H]2/C=C\C=C\C(=O)Cc2c(Cl)c(O)cc(O)c2C(=O)O1 [radicicol]
- inhibition of casein kinase II activity (casein kinase II): neither NECA nor radicicol, both of which bind to the N-terminal nucleotide binding domain of GRP94, significantly inhibit GRP94 derived or casein kinase II activity below the solvent background
- binding stoichiometry to Hsp90 (HSP90; Roe et al. (1999)): 2 mol radicicol/mol Hsp90 dimer

- nucleoside base specificity: binding to GRP94 by [3H]-NECA displacement (GRP94 [3]): little to no binding
Molecule: O=c1ccn([C@@H]2O[C@H](COP(=O)(O)OP(=O)(O)OP(=O)(O)O)[C@@H](O)[C@H]2O)c(=O)[nH]1 [UTP]

Molecule: Nc1ncnc2c1ncn2[C@@H]1O[C@H](COP(=O)(O)O)[C@@H](O)[C@H]1O [AMP]
- effect of excess Mg2+ on binding to GRP94 (GRP94 [3]): markedly stimulated the binding of ATP, ADP and AMP

- nucleoside base specificity: binding to GRP94 by [3H]-NECA displacement (GRP94 [3]): little to no binding
Molecule: Nc1nc2c(ncn2[C@@H]2O[C@H](COP(=O)(O)OP(=O)(O)OP(=O)(O)O)[C@@H](O)[C@H]2O)c(=O)[nH]1 [GTP]
- inhibition of GRP94 autophosphorylation (GRP94-derived kinase) activity (GRP94 [2]): markedly attenuated GRP94-derived and casein kinase II activity
- inhibition of casein kinase II activity (casein kinase II): markedly attenuated GRP94-derived and casein kinase II activity

Molecule: O=S(=O)(O)c1cccc2cccc(Nc3ccccc3)c12 [8-ANS, 1,8-anilinonaphthalenesulfonate]
- agonist activity for GRP94 activation (GRP94 [1]): functions solely as an indicator and lacks agonist activity
- fluorophore binding to native versus heat shocked GRP94 (fluorescence emission) (GRP94 [1]): displays weak interactions with native GRP94, yet binds avidly following heat shock

- relative affinities for GRP94 in presence of Mg2+ (GRP94 [3]; excess Mg2+): nearly identical relative affinities
Molecule: Nc1ncnc2c1ncn2[C@@H]1O[C@H](COP(=O)(O)OP(=O)(O)O)[C@@H](O)[C@H]1O [ADP]
- effect of excess Mg2+ on binding to GRP94 (GRP94 [3]): markedly stimulated the binding of ATP, ADP and AMP
- change of GRP94 tryptophan fluorescence (GRP94 [4]): the tryptophan fluorescence was decreased
- affinity of N-terminal domain of Hsp90, ADP relative to ATP (HSP90; Prodromou et al. (1997)): four-fold higher affinity than that observed for ATP

Molecule: Nc1ncnc2c1ncn2[C@@H]1O[C@H](CO)[C@@H](O)[C@H]1O [adenosine]
- relative displacement activity in [3H]-NECA competition (GRP94 [3]): relative displacement activity approximating that observed for ADP
- effect of excess Mg2+ on binding to GRP94 (GRP94 [3]): without effect on the binding of NECA or adenosine to GRP94

- nucleoside base specificity: binding to GRP94 by [3H]-NECA displacement (GRP94 [3]): GRP94 could bind both ATP and deoxyATP
Molecule: Nc1ncnc2c1ncn2[C@H]1C[C@H](O)[C@@H](COP(=O)(O)OP(=O)(O)OP(=O)(O)O)O1 [deoxyATP]
